{"source": "patent US20060287313A1", "about": "“Isoquinoline compounds and methods of use thereof” (Inotek Pharmaceuticals Corporation, priority 2005, published 2006)", "key": {"[1]": {"molecular_target": "T1, PARS (Mus musculus, UniProt P11103)", "T1 construct": "endogenous in cells; host or cells: RAW murine macrophages", "T1 sequence (P11103 whole entry)": "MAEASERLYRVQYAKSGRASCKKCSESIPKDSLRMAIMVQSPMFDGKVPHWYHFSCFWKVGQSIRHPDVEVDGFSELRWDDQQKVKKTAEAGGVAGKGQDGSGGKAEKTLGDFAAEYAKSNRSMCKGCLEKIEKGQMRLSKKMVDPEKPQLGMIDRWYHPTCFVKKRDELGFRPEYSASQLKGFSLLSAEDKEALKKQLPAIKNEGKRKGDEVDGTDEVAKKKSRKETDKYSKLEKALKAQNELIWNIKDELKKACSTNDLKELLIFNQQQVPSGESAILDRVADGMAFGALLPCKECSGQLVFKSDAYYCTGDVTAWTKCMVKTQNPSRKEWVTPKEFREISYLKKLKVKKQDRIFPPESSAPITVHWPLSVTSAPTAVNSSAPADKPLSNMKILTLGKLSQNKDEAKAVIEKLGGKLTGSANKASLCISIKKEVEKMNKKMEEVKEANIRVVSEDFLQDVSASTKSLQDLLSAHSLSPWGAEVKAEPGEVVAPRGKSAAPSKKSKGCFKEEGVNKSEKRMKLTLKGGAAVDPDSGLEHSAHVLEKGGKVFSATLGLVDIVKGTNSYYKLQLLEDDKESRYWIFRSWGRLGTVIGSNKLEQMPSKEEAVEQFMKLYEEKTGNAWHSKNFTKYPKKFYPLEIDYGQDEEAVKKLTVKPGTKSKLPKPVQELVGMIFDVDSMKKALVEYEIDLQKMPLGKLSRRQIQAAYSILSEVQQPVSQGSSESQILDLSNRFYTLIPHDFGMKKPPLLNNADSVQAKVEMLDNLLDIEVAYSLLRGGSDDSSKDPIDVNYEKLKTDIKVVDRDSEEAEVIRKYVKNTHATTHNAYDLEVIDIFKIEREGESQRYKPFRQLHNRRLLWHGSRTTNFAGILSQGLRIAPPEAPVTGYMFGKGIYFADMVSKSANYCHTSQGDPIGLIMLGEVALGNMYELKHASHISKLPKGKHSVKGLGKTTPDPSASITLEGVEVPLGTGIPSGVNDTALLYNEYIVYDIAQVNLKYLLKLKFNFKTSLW", "experiment": "Cell protection assay: PARS activity in peroxynitrite-treated raw murine macrophages", "assay_type": "cell-based", "details": "peroxynitrite 750 μM, 3H-NAD incorporation, calculated from a dose-response curve", "description": "The media was removed and replaced with 0.5 mL HEPES (pH 7.5) containing 0.01% digitonin and ^3H-NAD (0.5 μCi/mL, final concentration of NAD+ in buffer is […]) and the resultant mixture was allowed to stand for 20 minutes. […] The tubes were maintained at 4° C. for four hours, centrifuged at 1800 g for 10 minutes, and the supernatant removed. […] The contents of the tubes were then added to ScintiSafe Plus scintillation liquid (6.5 ml, Fisher Scientific) and radioactivity was measured using a liquid scintillation counter (Wallac, Gaithersburg, Md.)."}, "[2]": {"molecular_target": "T2, purified PARS enzyme (Homo sapiens, UniProt P09874)", "T2 construct": "purchased Trevigen, Gaithersburg, Md", "T2 sequence (P09874 whole entry)": "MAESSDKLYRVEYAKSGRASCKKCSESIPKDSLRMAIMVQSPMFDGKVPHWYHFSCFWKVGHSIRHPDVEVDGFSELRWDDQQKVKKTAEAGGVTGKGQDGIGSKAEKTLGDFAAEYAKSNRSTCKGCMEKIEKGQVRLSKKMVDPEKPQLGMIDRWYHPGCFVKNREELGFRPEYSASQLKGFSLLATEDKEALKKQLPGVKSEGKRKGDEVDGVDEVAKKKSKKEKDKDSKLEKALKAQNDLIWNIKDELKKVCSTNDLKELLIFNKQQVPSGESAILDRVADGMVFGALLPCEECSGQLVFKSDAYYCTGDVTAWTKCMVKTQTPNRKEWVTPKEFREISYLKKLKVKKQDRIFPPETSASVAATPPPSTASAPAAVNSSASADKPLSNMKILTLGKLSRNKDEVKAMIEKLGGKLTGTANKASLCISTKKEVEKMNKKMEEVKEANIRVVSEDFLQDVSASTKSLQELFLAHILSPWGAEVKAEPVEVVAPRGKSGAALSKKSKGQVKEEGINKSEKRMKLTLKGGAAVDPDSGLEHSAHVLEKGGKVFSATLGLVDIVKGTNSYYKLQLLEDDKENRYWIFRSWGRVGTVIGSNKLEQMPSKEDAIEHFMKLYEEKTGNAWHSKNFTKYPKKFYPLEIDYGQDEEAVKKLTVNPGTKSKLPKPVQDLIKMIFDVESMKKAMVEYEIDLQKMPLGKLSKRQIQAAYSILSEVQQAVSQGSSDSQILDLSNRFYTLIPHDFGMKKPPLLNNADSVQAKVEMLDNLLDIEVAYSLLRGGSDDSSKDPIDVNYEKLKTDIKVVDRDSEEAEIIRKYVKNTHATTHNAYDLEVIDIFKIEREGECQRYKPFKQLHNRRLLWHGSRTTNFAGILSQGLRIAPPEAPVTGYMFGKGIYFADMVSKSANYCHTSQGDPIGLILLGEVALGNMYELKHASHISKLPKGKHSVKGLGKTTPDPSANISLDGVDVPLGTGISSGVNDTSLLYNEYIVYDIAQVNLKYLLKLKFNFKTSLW", "experiment": "Purified PARS enzyme assay (Trevigen PARS inhibition assay kit)", "assay_type": "biochemical", "details": "Table 1, inhibitory effect on PARS; assay not given", "description": "The assay is performed in 96 well ELISA plates according to instructions provided with a commercially available PARS inhibition assay kit (for example, from Trevigen, Gaithersburg, Md.).\nThe assay was performed in 96 well ELISA plates according to instructions provided with a commercially available PARS inhibition assay kit (Trevigen, Gaithersburg, Md.). Briefly, wells were coated with 1 mg/ml histone (50 μl/well) at 4 C overnight. Plates were then washed four times with PBS and then blocked by adding 50 μl Strep-Diluent (supplied with the kit). After incubation (1 h, 25° C.), the plates were washed four times with PBS. […] The reaction was allowed to proceed for 30 min at room temperature. After 4 washes in PBS, incorporated biotin was detected by peroxidase-conjugated streptavidin (1:500 dilution) and TACS Sapphire substrate."}}}
{"smiles": "CN(C)CC(=O)Nc1cccc2c1Cc1c-2[nH]c(=O)c2ccccc12", "note": "[Compound 3a]", "values": [{"measurement": "EC50", "setting": "[1]", "value": 200, "unit": "nM"}]}
{"smiles": "CN(C)CCC(=O)Nc1cccc2c1Cc1c-2[nH]c(=O)c2ccccc12", "note": "[Compound 3b]", "values": [{"measurement": "EC50", "setting": "[1]", "value": 280, "unit": "nM"}]}
{"smiles": "O=C(CN1CC=C(c2ccccc2)CC1)Nc1ccc2c(c1)Cc1c-2[nH]c(=O)c2ccccc12", "note": "[Compound 12a, N-(5-Oxo-5,11-dihydro-6H-indeno[1,2-c]isoquinolin-9-yl)-2-(4-phenyl-3,6-dihydro-2H-pyridin-1-yl)-acetamide]", "values": [{"measurement": "IC50", "setting": "[2]", "value": 80, "unit": "nM"}]}
{"smiles": "CCCNC(=O)Nc1ccc2c(c1)Cc1c-2[nH]c(=O)c2ccccc12", "note": "[Compound 27]", "values": [{"measurement": "IC50", "setting": "[2]", "value": 100, "unit": "nM"}]}
{"smiles": "CN(C)CC(=O)Nc1ccc2c(c1)-c1[nH]c(=O)c3ccccc3c1C2", "note": "[Compound 56a, N-[5,6-Dihydro-5-oxo-indeno[1,2-c]isoquinolin-8-yl]-N,N-dimethylacetamide]", "values": [{"measurement": "IC50", "setting": "[2]", "value": 800, "unit": "nM"}]}
